Experimental data published in patent publication US8420216B2, “Thermosetting resin composition” (Showa Denko K.K., priority 2007, dated 2013).
“And” between values parts separate entries of the source, which are not always exact repeats. Equal values may be shown once. Read-outs that look alike come from different tables or passages of the source.

Assay: pKa of curing accelerator (dissociation constant of aqueous solution at 25° C.)
Type: physicochemical
Procedure: The “pKa value” referred to in the invention is a numerical value represented by the following formula when the dissociation constant of an aqueous solution at 25° C. is denoted by “Ka”. The dissociation constant Ka of the aqueous solution is determined by, for example, measuring a hydrogen ion concentration of the aqueous solution by a pH meter and calculating concentrations of a dissociated component and an undissociated component after dissolution by the use of the resulting hydrogen ion concentration and weighed values of the solvate and water before dissolution. pKa=−log10 Ka

[1] = aqueous solution at 25° C., values in text
[2] = aqueous solution, of the curing accelerator, Table 1, read-out: pKa

Row | SMILES | pKa [1] | pKa (aqueous solution, aqueous solution at 25° C., values in text, read-out: pKa) | pKa [2] | pKa (of the curing accelerator, Table 1) | pKa (aqueous solution at 25° C., values in text, read-out: pKa)
1 | Cc1ncc[nH]1 [2-methylimidazole] | 7.9 | 7.88 | 7.9 | – | –
2 | C1CCC2=NCCCN2CC1 [DBU, 1,8-diazabicyclo[5.4.0]undecene-7] | 12.5 | – | – | 12.7 and 12.5 | –
3 | Nc1nc(N)nc(N)n1 [melamine] | – | – | 5 | – | 5
